Results on 1 compound are retold here after US20220167627A1, “Microbial preparation of bacillus” (priority 2020, published 2022).

The test system of assay [1] is rice seedlings. The assay is described as follows: IAA sensitivity test on rice seedlings. It counts as in vivo. The method, then:
Taking rice and lettuce for example, IAA sensitivity of the microbial preparation is tested in steps of: disinfecting and germinating rice seedlings; putting the rice seedlings in a sterilized Petri dish in which a filter paper is disposed; […]; moving the sterilized Petri dish into a plant growth box for 4 days; measuring an average height of buds of the rice seedlings and an average height of roots of the rice seedlings;

For assay [2], the system named is lettuce. The assay is described as follows: IAA sensitivity test on lettuce. It counts as in vivo. The procedure: Taking rice and lettuce for example, IAA sensitivity of the microbial preparation is tested in steps of: disinfecting seeds of the lettuce with 5% sodium hypochlorite and putting the seeds of the lettuce in another sterilized Petri dish in which a filter paper is disposed; adding 3 mL of 0.03 μM, 3 μM, 30 μM, and 300 μM of IAA aqueous solutions respectively; moving another sterilized Petri dish into another plant growth box for 3 days; and measuring a germination rate and a height of each lettuce and a length of a root of each lettuce.

`O=C(O)Cc1c[nH]c2ccccc12` [IAA]: the “growth of the roots of the rice seedlings” value is reported as “does not promote a growth of the roots” in assay [1] (IAA 0.03 μM to 30 μM, 4 days, FIG. 1); “limited” in assay [1] (IAA 300 μM, 4 days, FIG. 1); “do not grow obviously” in assay [1] (IAA within 0.00003 μM to 0.003 μM). Besides, in assay [2] (IAA 0.03 μM (lowest concentration), 3 days), the “growth of the lettuce seedlings” value is listed as “reduces a growth of the lettuce seedlings”. In assay [2] (IAA 0.03 μM, 3 days (no IAA: 5.3 mm)), the “height of lettuce sprouts” value stood at 3.5 mm. Moreover, in assay [2] (IAA 0.03 μM, 3 days (no IAA: 14.8 mm)), the “length of lettuce roots” value is 8.8 mm. Also, the “germination rate of seeds of the lettuce” value in assay [2] (IAA 300 μM, 3 days (no IAA: 78%)) came out at 13%.
